Literature values, collected in patent US7531581B2, “Method and use of acidified modified polymers to bind biocides in paints” (I-Tech AB, priority 2005, dated 2009).

Test system: barnacles
Details: serotonin antagonists and dopamine agonists

| SMILES | effect on attachment of barnacles |
| --- | --- |
| CC(C)C[C@H]1C(=O)N2CCC[C@H]2[C@]2(O)O[C@](NC(=O)[C@@H]3C=C4c5cccc6[nH]c(Br)c(c56)C[C@H]4N(C)C3)(C(C)C)C(=O)N12 [(+)-Bromocriptine] | inhibitory properties |
| O=C(c1ccc(F)cc1)C1CCN(CCn2c(=O)[nH]c3ccccc3c2=O)CC1 [Ketanserin] | inhibitory properties |
| CCCN1CCc2cccc3c2[C@H]1Cc1ccc(O)c(O)c1-3 [R (−)-NPA] | inhibitory properties |
